# Tested on: male and female Sprague–Dawley rats
# Assay: 90-day subchronic oral gavage toxicity study
# Type: in vivo, rat
# Design: key to NOEL, absolute liver weight increase / LOEL, absolute liver weight increase / NOEL, relative kidney weight increase / LOEL, relative kidney weight increase / NOEL, absolute kidney weight increase / LOEL, absolute kidney weight increase / NOEL, relative liver weight increase / LOEL, relative liver weight increase: NR: no response, no statistically significant dose-dependent changes
# Method in brief: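 Ten rats per sex per group got corn-oil gavage (3 mL/kg) at five doses or vehicle for 90 days, necropsy on SD 91. Assessed weekly weights and food intake, neurobehavior (FOB, locomotor), eyes, terminal blood panels with plasma PFAS, organ weights and H&E histology; Dunnett's test against control, two-sided 0.05.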
smiles,measurement,setting,value
"CC(=O)C(F)(F)C(F)(F)C(F)(F)F [MHFPK, Methyl heptafluoropropyl ketone]",Bodyweight (BW) and bodyweight gain,"90-day, both sexes, all doses",No changes in BW or BW gain over the course of the study
same,Clinical observations,"90-day, both sexes, all doses",None
same,Coagulation endpoints,"90-day, both sexes, all doses","Males at ≥37.5 mg/kg-day, from minimal to mild dose-dependent prolongations in PT; no effects in females"
same,Feed consumption,"90-day, both sexes, all doses","No changes in males; some statistically significant changes in females, not considered as compound related"
same,Functional observational battery,"90-day, both sexes, all doses",No changes
same,Gross lesions,"90-day, both sexes, all doses",None considered as MHFPK related
same,Hematology,"90-day, both sexes, all doses",From minimal to mild dose-dependent increases in MPV in both sexes at ≥18.8 mg/kg-day
same,Histopathology,"90-day, both sexes, all doses",None considered as MHFPK related
same,Locomotor activity,"90-day, both sexes, all doses",No effects
same,Morbidity and mortality,"90-day, both sexes, all doses",None
same,Ophthalmology,"90-day, both sexes, all doses",No ocular lesions
same,Organ weight changes,"90-day, both sexes, all doses",None considered as MHFPK related
same,"LOEL, absolute kidney weight increase",female,NR
same,"LOEL, absolute liver weight increase",female,NR
same,"LOEL, relative kidney weight increase",female,NR
same,"LOEL, relative liver weight increase",female,NR
same,"NOEL, absolute kidney weight increase",female,NR
same,"NOEL, absolute liver weight increase",female,NR
same,"NOEL, relative kidney weight increase",female,NR
same,"NOEL, relative liver weight increase",female,NR
same,% BW Gain,"female, 18.8 mg/kg-day",47.40%
same,"% Diff, % BW Gain","female, 18.8 mg/kg-day",25.52%
same,"% Diff, Total BW change","female, 18.8 mg/kg-day",27.05%
same,"% Diff, Total Food Consumed","female, 18.8 mg/kg-day",11.67%
same,A/G,"female, 18.8 mg/kg-day",1.12±0.13 ratio
same,ABEOS,"female, 18.8 mg/kg-day",0.108±0.037 K/µL
same,ABNEUT,"female, 18.8 mg/kg-day",1.004±0.296 K/µL
same,ABRETi,"female, 18.8 mg/kg-day",195.85±38.05 10^9/L
same,ALB,"female, 18.8 mg/kg-day",4.26 ± 0.27 g/dL
same,ALPi,"female, 18.8 mg/kg-day",69.1±55.5 U/L
same,APTT,"female, 18.8 mg/kg-day",16.80 s
same,BUN,"female, 18.8 mg/kg-day",15.5 ± 2.2 mg/dL
same,CHOL,"female, 18.8 mg/kg-day",100.6 ± 17.0 mg/dL
same,GLOB,"female, 18.8 mg/kg-day",3.82 ± 0.36 g/dL
same,GLUC,"female, 18.8 mg/kg-day",158.0 ± 18.9 mg/dL
same,HCT,"female, 18.8 mg/kg-day",46.27±2.37%
same,HGB,"female, 18.8 mg/kg-day",14.58 ± 0.67 g/dL
same,Kidney Weight,"female, 18.8 mg/kg-day",1.94 g
same,Kidney/Body Weight,"female, 18.8 mg/kg-day",0.56%
same,Kidney/Brain Weight,"female, 18.8 mg/kg-day",96.5%
same,Liver Weight,"female, 18.8 mg/kg-day",8.74 g
same,Liver/Body Weight,"female, 18.8 mg/kg-day",2.51%
same,Liver/Brain Weight,"female, 18.8 mg/kg-day",435%
same,MPV,"female, 18.8 mg/kg-day",8.22 ± 0.82 fL
same,PT,"female, 18.8 mg/kg-day",15.23 s
same,RBC,"female, 18.8 mg/kg-day",7.887±0.439 M/µL
same,Total BW change,"female, 18.8 mg/kg-day",115.68 g
same,Total Food Consumed,"female, 18.8 mg/kg-day",1629 g
same,% BW Gain,"female, 37.5 mg/kg-day",44.49%
same,"% Diff, % BW Gain","female, 37.5 mg/kg-day",17.83%
same,"% Diff, Total BW change","female, 37.5 mg/kg-day",18.53%
same,"% Diff, Total Food Consumed","female, 37.5 mg/kg-day",1.46%
same,A/G,"female, 37.5 mg/kg-day",1.05±0.08 ratio
same,ABEOS,"female, 37.5 mg/kg-day",0.102±0.040 K/µL
same,ABNEUT,"female, 37.5 mg/kg-day",1.068±0.314 K/µL
same,ABRETi,"female, 37.5 mg/kg-day",190.80±35.78 10^9/L
same,ALB,"female, 37.5 mg/kg-day",4.17 ± 0.35 g/dL
same,ALPi,"female, 37.5 mg/kg-day",56.9±24.3 U/L
same,APTT,"female, 37.5 mg/kg-day",18.10 s
same,BUN,"female, 37.5 mg/kg-day",14.7 ± 2.4 mg/dL
same,CHOL,"female, 37.5 mg/kg-day",106.5 ± 21.4 mg/dL
same,GLOB,"female, 37.5 mg/kg-day",3.99 ± 0.28 g/dL
same,GLUC,"female, 37.5 mg/kg-day",161.9 ± 28.0 mg/dL
same,HCT,"female, 37.5 mg/kg-day",46.13±1.42%
same,HGB,"female, 37.5 mg/kg-day",14.42 ± 0.61 g/dL
same,Kidney Weight,"female, 37.5 mg/kg-day",1.84 g
same,Kidney/Body Weight,"female, 37.5 mg/kg-day",0.55%
same,Kidney/Brain Weight,"female, 37.5 mg/kg-day",91.4%
same,Liver Weight,"female, 37.5 mg/kg-day",8.76 g
same,Liver/Body Weight,"female, 37.5 mg/kg-day",2.58%
same,Liver/Brain Weight,"female, 37.5 mg/kg-day",433%
same,MPV,"female, 37.5 mg/kg-day",8.56 ± 0.67 fL
same,PT,"female, 37.5 mg/kg-day",14.98 s
same,RBC,"female, 37.5 mg/kg-day",7.864±0.307 M/µL
same,Total BW change,"female, 37.5 mg/kg-day",107.92 g
same,Total Food Consumed,"female, 37.5 mg/kg-day",1480 g
same,% BW Gain,"female, 75 mg/kg-day",39.38%
same,"% Diff, % BW Gain","female, 75 mg/kg-day",4.28%
same,"% Diff, Total BW change","female, 75 mg/kg-day",4.15%
same,"% Diff, Total Food Consumed","female, 75 mg/kg-day",4.34%
same,A/G,"female, 75 mg/kg-day",1.27±0.60 ratio
same,ABEOS,"female, 75 mg/kg-day",0.090±0.027 K/µL
same,ABNEUT,"female, 75 mg/kg-day",1.005±0.441 K/µL
same,ABRETi,"female, 75 mg/kg-day",193.71±46.37 10^9/L
same,ALB,"female, 75 mg/kg-day",4.45 ± 0.91 g/dL
same,ALPi,"female, 75 mg/kg-day",55.0±18.5 U/L
same,APTT,"female, 75 mg/kg-day",18.68 s
same,BUN,"female, 75 mg/kg-day",16.5 ± 2.1 mg/dL
same,CHOL,"female, 75 mg/kg-day",99.1 ± 21.5 mg/dL
same,GLOB,"female, 75 mg/kg-day",3.85 ± 0.96 g/dL
same,GLUC,"female, 75 mg/kg-day",159.0 ± 32.6 mg/dL
same,HCT,"female, 75 mg/kg-day",45.88±1.35%
same,HGB,"female, 75 mg/kg-day",14.40 ± 0.50 g/dL
same,Kidney Weight,"female, 75 mg/kg-day",1.91 g
same,Kidney/Body Weight,"female, 75 mg/kg-day",0.59%
same,Kidney/Brain Weight,"female, 75 mg/kg-day",96.8%
same,Liver Weight,"female, 75 mg/kg-day",8.53 g
same,Liver/Body Weight,"female, 75 mg/kg-day",2.62%
same,Liver/Brain Weight,"female, 75 mg/kg-day",432%
same,MPV,"female, 75 mg/kg-day",8.55 ± 0.75 fL
same,PT,"female, 75 mg/kg-day",14.74 s
same,RBC,"female, 75 mg/kg-day",7.823±0.340 M/µL
same,Total BW change,"female, 75 mg/kg-day",94.83 g
same,Total Food Consumed,"female, 75 mg/kg-day",1522 g
same,% BW Gain,"female, 150 mg/kg-day",37.70%
same,"% Diff, % BW Gain","female, 150 mg/kg-day",-0.15%
same,"% Diff, Total BW change","female, 150 mg/kg-day",-0.78%
same,"% Diff, Total Food Consumed","female, 150 mg/kg-day",5.76%
same,A/G,"female, 150 mg/kg-day",1.14±0.34 ratio
same,ABEOS,"female, 150 mg/kg-day",0.093±0.035 K/µL
same,ABNEUT,"female, 150 mg/kg-day",1.175±0.584 K/µL
same,ABRETi,"female, 150 mg/kg-day",193.46±35.08 10^9/L
same,ALB,"female, 150 mg/kg-day",4.37 ± 0.51 g/dL
same,ALPi,"female, 150 mg/kg-day",47.5±8.8 U/L
same,APTT,"female, 150 mg/kg-day",21.76 s
same,BUN,"female, 150 mg/kg-day",18.2 ± 2.9 mg/dL
same,CHOL,"female, 150 mg/kg-day",104.3 ± 20.7 mg/dL
same,GLOB,"female, 150 mg/kg-day",4.00 ± 0.81 g/dL
same,GLUC,"female, 150 mg/kg-day",166.7 ± 26.3 mg/dL
same,HCT,"female, 150 mg/kg-day",45.40±1.55%
same,HGB,"female, 150 mg/kg-day",14.27 ± 0.54 g/dL
same,Kidney Weight,"female, 150 mg/kg-day",1.84 g
same,Kidney/Body Weight,"female, 150 mg/kg-day",0.57%
same,Kidney/Brain Weight,"female, 150 mg/kg-day",95.8%
same,Liver Weight,"female, 150 mg/kg-day",8.84 g
same,Liver/Body Weight,"female, 150 mg/kg-day",2.74%
same,Liver/Brain Weight,"female, 150 mg/kg-day",462%
same,MPV,"female, 150 mg/kg-day",8.84 ± 0.70 fL
same,PT,"female, 150 mg/kg-day",14.99 s
same,RBC,"female, 150 mg/kg-day",7.731±0.255 M/µL
same,Total BW change,"female, 150 mg/kg-day",90.34 g
same,Total Food Consumed,"female, 150 mg/kg-day",1542 g
same,% BW Gain,"female, 300 mg/kg-day",39.88%
same,"% Diff, % BW Gain","female, 300 mg/kg-day",5.61%
same,"% Diff, Total BW change","female, 300 mg/kg-day",5.11%
same,"% Diff, Total Food Consumed","female, 300 mg/kg-day",7.99%
same,A/G,"female, 300 mg/kg-day",1.01±0.13 ratio
same,ABEOS,"female, 300 mg/kg-day",0.085±0.022 K/µL
same,ABNEUT,"female, 300 mg/kg-day",1.220±0.506 K/µL
same,ABRETi,"female, 300 mg/kg-day",181.86±36.58 10^9/L
same,ALB,"female, 300 mg/kg-day",4.15 ± 0.28 g/dL
same,ALPi,"female, 300 mg/kg-day",54.1±22.2 U/L
same,APTT,"female, 300 mg/kg-day",22.79 s
same,BUN,"female, 300 mg/kg-day",17.6 ± 4.5 mg/dL
same,CHOL,"female, 300 mg/kg-day",107.5 ± 21.4 mg/dL
same,GLOB,"female, 300 mg/kg-day",4.16 ± 0.64 g/dL
same,GLUC,"female, 300 mg/kg-day",151.4 ± 28.6 mg/dL
same,HCT,"female, 300 mg/kg-day",48.02±1.91%
same,HGB,"female, 300 mg/kg-day",14.98 ± 0.42 g/dL
same,Kidney Weight,"female, 300 mg/kg-day",1.94 g
same,Kidney/Body Weight,"female, 300 mg/kg-day",0.59%
same,Kidney/Brain Weight,"female, 300 mg/kg-day",97.1%
same,Liver Weight,"female, 300 mg/kg-day",8.59 g
same,Liver/Body Weight,"female, 300 mg/kg-day",2.63%
same,Liver/Brain Weight,"female, 300 mg/kg-day",430%

# From article PMC12298827, “Subchronic Toxicities of Four Per- and Polyfluoroalkyl Substances (PFASs) by Oral Exposure in Sprague–Dawley Rats” (Toxics, 2025)
